Measured values reported in the supplement of paper PMC9663587.

Experiments:
[1] = compound: CCc1cnn2c(NCc3ccc[n+]([O-])c3)cc(N3CCCC[C@H]3CCO)nc12; assay: increase in dead-cell fraction, 72 h; higher = more death;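 note: breast cancer cell lines in 384-well plates, stained with Hoechst plus LIVE/DEAD far red dye and imaged, cells above an LDR intensity threshold counted dead, Hoechst-negative corpses included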
LEE011/Ribociclib = compound: CN(C)C(=O)c1cc2cnc(Nc3ccc(N4CCNCC4)cn3)nc2n1C1CCCC1 [LEE011/Ribociclib]; assay: as above
BSJ-03-123 = compound: CC(=O)c1c(C)c2cnc(Nc3ccc(N4CCN(CCOCCOCCOCCNC(=O)COc5cccc6c5C(=O)N(C5CCC(=O)NC5=O)C6=O)CC4)cn3)nc2n(C2CCCC2)c1=O [BSJ-03-123]; assay: as above
[2] = compound: CC(=O)c1c(C)c2cnc(Nc3ccc(N4CCNCC4)cn3)nc2n(C2CCCC2)c1=O; assay: as above
[3] = compound: CCN1CCN(Cc2ccc(Nc3ncc(F)c(-c4cc(F)c5nc(C)n(C(C)C)c5c4)n3)nc2)CC1; assay: as above
Flavopiridol = compound: CN1CC[C@H](c2c(O)cc(O)c3c(=O)cc(-c4ccccc4Cl)oc23)[C@H](O)C1 [Flavopiridol]; assay: as above
THZ1 = compound: CN(C)C/C=C/C(=O)Nc1ccc(C(=O)Nc2cccc(Nc3ncc(Cl)c(-c4c[nH]c5ccccc45)n3)c2)cc1 [THZ1]; assay: as above
Neratinib/HKI272 = compound: CCOc1cc2ncc(C#N)c(Nc3ccc(OCc4ccccn4)c(Cl)c3)c2cc1NC(=O)/C=C/CN(C)C [Neratinib/HKI272]; assay: as above
AZD2014 = compound: CNC(=O)c1cccc(-c2ccc3c(N4CCOC[C@@H]4C)nc(N4CCOC[C@@H]4C)nc3n2)c1 [AZD2014]
BSJ-01-175 = compound: CN(C)C/C=C/C(=O)Nc1ccc(O[C@@H]2CCC[C@@H](Nc3ncc(Cl)c(-c4c[nH]c5ccccc45)n3)C2)cc1 [BSJ-01-175]
Tivantinib/ARQ197 = compound: O=C1NC(=O)[C@@H](c2cn3c4c(cccc24)CCC3)[C@@H]1c1c[nH]c2ccccc12 [Tivantinib/ARQ197]
AZD7762 = compound: NC(=O)Nc1cc(-c2cccc(F)c2)sc1C(=O)N[C@H]1CCCNC1 [AZD7762]
[4] = compound: CCC1=CN=CN=C1N2CCN(CC2)CC3=NC4=C(N3)C=C(C=C4)C(F)(F)F
Vorinostat = compound: O=C(CCCCCCC(=O)Nc1ccccc1)NO [Vorinostat]
[5] = compound: CCN1CCN(Cc2ccc(Nc3ncc(F)c(-c4cc(F)c5nc(C)n(C(C)C)c5c4)n3)nc2)CC1
Ipatasertib/GDC0068 = compound: CC(C)NC[C@@H](C(=O)N1CCN(c2ncnc3c2[C@H](C)C[C@H]3O)CC1)c1ccc(Cl)cc1 [Ipatasertib/GDC0068]
[6] = compound: CC(=O)Nc1cccc(-n2c(=O)n(C3CC3)c(=O)c3c(Nc4ccc(I)cc4F)n(C)c(=O)c(C)c32)c1
[7] = compound: COc1ccc2c(c1)[C@]1(C[C@H]1c1ccc3c(/C=C/c4ccc(CN5C[C@@H](C)O[C@@H](C)C5)cc4)n[nH]c3c1)C(=O)N2
AZD6738 = compound: C[C@@H]1COCCN1c1cc(C2([S@](C)(=N)=O)CC2)nc(-c2cc[nH]c3nccc2-3)n1 [AZD6738]
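Throughout, for GR50, 72 h: breast cancer and non-malignant breast epithelial cell lines, Deep Dye Drop or Dye Drop imaging, nine half-log doses, GR normalized to time-zero plates and DMSO-only controls.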

## T47D
[1]; 0.0001 µM
  increase in dead-cell fraction: -0.0001
[1]; 0.0003162 µM
  increase in dead-cell fraction: 0.0027
[1]; 0.001 µM
  increase in dead-cell fraction: -0.0018
[1]; 0.003162 µM
  increase in dead-cell fraction: -0.0021
[1]; 0.01 µM
  increase in dead-cell fraction: 0.0073
[1]; 0.03162 µM
  increase in dead-cell fraction: 0.0576
[1]; 0.1 µM
  increase in dead-cell fraction: 0.106
[1]; 0.3162 µM
  increase in dead-cell fraction: 0.138
[1]; 1 µM
  increase in dead-cell fraction: 0.127
LEE011/Ribociclib; 0.001 µM
  increase in dead-cell fraction: 0.0085
LEE011/Ribociclib; 0.003162 µM
  increase in dead-cell fraction: 0.0069
LEE011/Ribociclib; 0.01 µM
  increase in dead-cell fraction: 0.0061
LEE011/Ribociclib; 0.03162 µM
  increase in dead-cell fraction: 0.0139
LEE011/Ribociclib; 0.1 µM
  increase in dead-cell fraction: 0.0374
LEE011/Ribociclib; 0.3162 µM
  increase in dead-cell fraction: 0.0392
LEE011/Ribociclib; 1 µM
  increase in dead-cell fraction: 0.0267
LEE011/Ribociclib; 3.162 µM
  increase in dead-cell fraction: 0.0405
LEE011/Ribociclib; 10 µM
  increase in dead-cell fraction: 0.0242
BSJ-03-123; 0.001 µM
  increase in dead-cell fraction: 0.0097
BSJ-03-123; 0.003162 µM
  increase in dead-cell fraction: 0.0074
BSJ-03-123; 0.01 µM
  increase in dead-cell fraction: 0.0101
BSJ-03-123; 0.03162 µM
  increase in dead-cell fraction: 0.0084
BSJ-03-123; 0.1 µM
  increase in dead-cell fraction: 0.019
BSJ-03-123; 0.3162 µM
  increase in dead-cell fraction: 0.021
BSJ-03-123; 1 µM
  increase in dead-cell fraction: 0.0319
BSJ-03-123; 3.162 µM
  increase in dead-cell fraction: 0.022
BSJ-03-123; 10 µM
  increase in dead-cell fraction: 0.0281
[2]; 0.0003162 µM
  increase in dead-cell fraction: 0.0016
[2]; 0.001 µM
  increase in dead-cell fraction: -0.001
[2]; 0.003162 µM
  increase in dead-cell fraction: 0.0022
[2]; 0.01 µM
  increase in dead-cell fraction: 0.0006
[2]; 0.03162 µM
  increase in dead-cell fraction: 0.0078
[2]; 0.1 µM
  increase in dead-cell fraction: 0.0116
[2]; 0.3162 µM
  increase in dead-cell fraction: 0.0158
[2]; 1 µM
  increase in dead-cell fraction: 0.0154
[2]; 3.162 µM
  increase in dead-cell fraction: 0.0097
[3]; 0.001 µM
  increase in dead-cell fraction: -0.0007
[3]; 0.003162 µM
  increase in dead-cell fraction: 0.0004
[3]; 0.01 µM
  increase in dead-cell fraction: 0.0119
[3]; 0.03162 µM
  increase in dead-cell fraction: 0.0119
[3]; 0.1 µM
  increase in dead-cell fraction: 0.0081
[3]; 0.3162 µM
  increase in dead-cell fraction: 0.0178
[3]; 1 µM
  increase in dead-cell fraction: 0.0167
[3]; 3.162 µM
  increase in dead-cell fraction: 0.0642
[3]; 10 µM
  increase in dead-cell fraction: 0.104
Flavopiridol; 0.0001 µM
  increase in dead-cell fraction: 0.0101
Flavopiridol; 0.0003162 µM
  increase in dead-cell fraction: -0.0037
Flavopiridol; 0.001 µM
  increase in dead-cell fraction: 0.0027
Flavopiridol; 0.003162 µM
  increase in dead-cell fraction: 0.0005
Flavopiridol; 0.01 µM
  increase in dead-cell fraction: 0.0011
Flavopiridol; 0.03162 µM
  increase in dead-cell fraction: -0.0028
Flavopiridol; 0.1 µM
  increase in dead-cell fraction: 0.0027
Flavopiridol; 0.3162 µM
  increase in dead-cell fraction: 0.0159
Flavopiridol; 1 µM
  increase in dead-cell fraction: 0.0323
THZ1; 0.0001 µM
  increase in dead-cell fraction: -0.0018
THZ1; 0.0003162 µM
  increase in dead-cell fraction: 0.0029
THZ1; 0.001 µM
  increase in dead-cell fraction: 0.0039
THZ1; 0.003162 µM
  increase in dead-cell fraction: 0.005
THZ1; 0.01 µM
  increase in dead-cell fraction: -0.0043
THZ1; 0.03162 µM
  increase in dead-cell fraction: 0.0328
THZ1; 0.1 µM
  increase in dead-cell fraction: 0.0197
THZ1; 0.3162 µM
  increase in dead-cell fraction: 0.0299
THZ1; 1 µM
  increase in dead-cell fraction: 0.0416
Neratinib/HKI272; 0.0003162 µM
  increase in dead-cell fraction: -0.0033
Neratinib/HKI272; 0.001 µM
  increase in dead-cell fraction: 0.0054
Neratinib/HKI272; 0.003162 µM
  increase in dead-cell fraction: 0.0022
Neratinib/HKI272; 0.01 µM
  increase in dead-cell fraction: 0.0045
Neratinib/HKI272; 0.03162 µM
  increase in dead-cell fraction: 0.0043
Neratinib/HKI272; 0.1 µM
  increase in dead-cell fraction: 0.0001
Neratinib/HKI272; 0.3162 µM
  increase in dead-cell fraction: 0.0101
Neratinib/HKI272; 1 µM
  increase in dead-cell fraction: 0.0084
Neratinib/HKI272; 3.162 µM
  increase in dead-cell fraction: 0.0225
AZD2014
  GR50, 72 h: < 0.001 µM
BSJ-01-175
  GR50, 72 h: 0.189 µM
Tivantinib/ARQ197
  GR50, 72 h: 0.346 µM
AZD7762
  GR50, 72 h: 2.37 µM
[4]
  GR50, 72 h: 3.75 µM
Vorinostat
  GR50, 72 h: 1.83 µM
[5]
  GR50, 72 h: 0.00428 µM
Ipatasertib/GDC0068
  GR50, 72 h: 0.136 µM
[6]
  GR50, 72 h: > 1 µM
[7]
  GR50, 72 h: 0.00463 µM
AZD6738
  GR50, 72 h: > 10 µM
